Results taken from ChEMBL document CHEMBL5532657, “Serendipitous discovery of Class I HDAC inhibitors from rational design of molecular glue degraders targeting HDAC” (Eur J Med Chem, 2024).
Calls of active or inactive are those of the source. No cut-off for these calls is given here.

Key:
[1] = test system: RPMI-8226; test: Antiproliferative activity against human RPMI-8226 cells assessed as cell growth inhibition at 5 uM incubated for 48 hrs by CCK-8 assay; type: functional, cell-based
[2] = target: Zinc finger protein Aiolos (Homo sapiens) (UniProt Q9UKT9); test: Induction of IKZF3 degradation in human RS4-11 cells at 1 to 10 uM by Western blotting analysis; type: cell-based; settings: dose 1-10 µM
[3] = target: Histone deacetylase (Homo sapiens) (UniProt Q13547+O15379+Q9UBN7+Q92769+Q9UQL6+Q8WUI4+Q9BY41+Q96DB2+P56524+Q9UKV0+Q969S8); test: Inhibition of HDAC in human RS4-11 cells assessed as upregulation of histone H4 acetylation at 1 to 10 uM by Western blot assay; type: cell-based; settings: dose 1-10 µM
[4] = target: Histone deacetylase 1 (Homo sapiens, UniProt Q13547); test: Binding affinity to HDAC1 (unknown origin)
[5] = test system: U-266; test: Antiproliferative activity against human U-266 cells assessed as cell growth inhibition incubated for 48 hrs by CCK-8 assay; type: functional, cell-based; settings: U-266, 48 h
[6] = test system: RS4-11; test: Induction of apoptosis in human RS4-11 cells assessed as upregulation of Bax level; type: functional, cell-based; settings: dose 1-10 µM
[7] = test system: U-266; test: Antiproliferative activity against human U-266 cells assessed as cell growth inhibition at 5 uM incubated for 48 hrs by CCK-8 assay; type: functional, cell-based
[8] = test system: RS4-11; test: Induction of apoptosis in human RS4-11 cells assessed as downregulation of Bcl-2 level; type: functional, cell-based; settings: dose 1-10 µM
[9] = test system: HeLa; test: Antiproliferative activity against human HeLa cells assessed as cell growth inhibition at 5 uM incubated for 48 hrs by CCK-8 assay; type: functional, cell-based
[10] = target: T1, Histone deacetylase 7 (Homo sapiens, UniProt Q8WUI4); test: Inhibition of HDAC7 in human HeLa cells nuclear extract using BocLys(acetyl)-AMC as substrate incubated for 1 hr by fluorescence plate reader analysis; type: subcellular, Nucleus
T1 sequence (Q8WUI4 whole entry): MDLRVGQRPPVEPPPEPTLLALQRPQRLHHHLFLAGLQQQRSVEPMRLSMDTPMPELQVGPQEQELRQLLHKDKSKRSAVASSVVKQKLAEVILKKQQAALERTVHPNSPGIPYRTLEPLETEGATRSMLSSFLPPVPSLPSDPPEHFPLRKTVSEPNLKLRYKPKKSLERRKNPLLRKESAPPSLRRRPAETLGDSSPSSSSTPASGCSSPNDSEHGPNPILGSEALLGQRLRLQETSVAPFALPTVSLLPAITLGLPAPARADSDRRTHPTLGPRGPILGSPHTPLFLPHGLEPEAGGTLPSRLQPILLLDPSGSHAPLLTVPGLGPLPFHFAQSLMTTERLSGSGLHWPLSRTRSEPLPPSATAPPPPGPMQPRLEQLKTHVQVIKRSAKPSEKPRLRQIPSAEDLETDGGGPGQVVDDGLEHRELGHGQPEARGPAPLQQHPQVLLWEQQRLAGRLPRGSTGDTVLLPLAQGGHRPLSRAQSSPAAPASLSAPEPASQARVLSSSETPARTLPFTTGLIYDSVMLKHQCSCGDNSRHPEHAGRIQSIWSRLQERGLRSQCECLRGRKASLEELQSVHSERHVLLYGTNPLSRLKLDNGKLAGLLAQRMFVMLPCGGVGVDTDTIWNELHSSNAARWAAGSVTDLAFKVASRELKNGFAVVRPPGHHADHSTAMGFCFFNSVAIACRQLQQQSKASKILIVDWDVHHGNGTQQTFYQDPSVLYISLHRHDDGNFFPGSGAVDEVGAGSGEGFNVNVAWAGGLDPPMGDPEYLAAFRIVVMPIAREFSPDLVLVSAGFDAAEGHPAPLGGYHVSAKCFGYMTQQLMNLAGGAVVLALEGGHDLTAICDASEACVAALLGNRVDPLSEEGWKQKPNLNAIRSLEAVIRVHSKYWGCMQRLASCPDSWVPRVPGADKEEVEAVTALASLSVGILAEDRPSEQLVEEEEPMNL

[11] = target: T2, Protein deacetylase HDAC6 (Homo sapiens) (UniProt Q9UBN7); test: Inhibition of HDAC6 in human RS4-11 cells assessed as effect on alpha-tubulin acetylation by Western blot assay; type: cell-based
T2 sequence (whole entry): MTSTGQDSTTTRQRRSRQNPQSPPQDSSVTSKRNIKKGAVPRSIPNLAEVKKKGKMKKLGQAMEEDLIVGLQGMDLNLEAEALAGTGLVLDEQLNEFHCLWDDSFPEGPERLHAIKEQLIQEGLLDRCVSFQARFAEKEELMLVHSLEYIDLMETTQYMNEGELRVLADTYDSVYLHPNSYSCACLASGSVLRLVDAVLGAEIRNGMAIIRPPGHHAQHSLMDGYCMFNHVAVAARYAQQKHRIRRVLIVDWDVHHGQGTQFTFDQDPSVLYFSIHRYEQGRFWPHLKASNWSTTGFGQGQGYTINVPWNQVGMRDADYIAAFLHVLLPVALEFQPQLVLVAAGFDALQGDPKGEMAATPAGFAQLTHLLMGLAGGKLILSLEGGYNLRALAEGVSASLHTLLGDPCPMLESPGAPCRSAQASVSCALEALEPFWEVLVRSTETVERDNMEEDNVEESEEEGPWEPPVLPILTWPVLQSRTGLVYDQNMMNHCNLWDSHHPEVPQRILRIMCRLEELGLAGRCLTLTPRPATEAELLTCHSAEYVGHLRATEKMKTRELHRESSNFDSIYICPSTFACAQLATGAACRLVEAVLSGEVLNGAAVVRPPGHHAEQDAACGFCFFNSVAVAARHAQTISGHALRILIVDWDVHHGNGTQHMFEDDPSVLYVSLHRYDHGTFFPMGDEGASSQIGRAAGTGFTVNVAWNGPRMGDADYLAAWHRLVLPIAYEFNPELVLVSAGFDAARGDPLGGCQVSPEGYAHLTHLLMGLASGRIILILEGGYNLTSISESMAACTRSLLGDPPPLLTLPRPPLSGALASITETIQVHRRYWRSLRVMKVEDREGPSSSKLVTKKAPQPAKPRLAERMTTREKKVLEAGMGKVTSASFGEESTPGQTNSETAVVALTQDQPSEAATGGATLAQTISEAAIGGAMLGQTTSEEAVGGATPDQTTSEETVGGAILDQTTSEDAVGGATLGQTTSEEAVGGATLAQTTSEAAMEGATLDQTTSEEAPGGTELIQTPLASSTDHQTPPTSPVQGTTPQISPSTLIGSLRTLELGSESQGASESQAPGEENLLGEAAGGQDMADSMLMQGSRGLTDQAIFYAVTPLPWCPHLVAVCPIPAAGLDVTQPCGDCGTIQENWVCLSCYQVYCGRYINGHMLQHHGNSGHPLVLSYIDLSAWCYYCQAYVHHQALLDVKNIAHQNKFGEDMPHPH

[12] = test system: A549; test: Antiproliferative activity against human A549 cells assessed as cell growth inhibition at 5 uM incubated for 48 hrs by CCK-8 assay; type: functional, cell-based
[13] = target: Histone deacetylase 2 (Homo sapiens, UniProt Q92769); test: Inhibition of HDAC2 in human HeLa cells nuclear extract using BocLys(acetyl)-AMC as substrate incubated for 1 hr by fluorescence plate reader analysis; type: subcellular, Nucleus
Chain of Histone deacetylase 2 (Q92769 whole entry): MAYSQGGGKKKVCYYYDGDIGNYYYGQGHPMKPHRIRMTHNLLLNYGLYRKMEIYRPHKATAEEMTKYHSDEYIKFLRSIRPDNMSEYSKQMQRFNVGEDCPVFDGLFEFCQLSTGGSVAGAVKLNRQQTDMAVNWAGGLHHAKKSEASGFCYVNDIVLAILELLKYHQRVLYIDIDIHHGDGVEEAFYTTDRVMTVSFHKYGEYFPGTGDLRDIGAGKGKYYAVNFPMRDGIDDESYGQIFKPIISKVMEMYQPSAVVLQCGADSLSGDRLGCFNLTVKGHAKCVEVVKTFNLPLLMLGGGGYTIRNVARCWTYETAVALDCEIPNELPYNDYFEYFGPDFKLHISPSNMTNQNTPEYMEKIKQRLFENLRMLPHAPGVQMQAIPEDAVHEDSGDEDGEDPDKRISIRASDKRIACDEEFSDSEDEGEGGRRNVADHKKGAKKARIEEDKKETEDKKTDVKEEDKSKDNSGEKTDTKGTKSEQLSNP

Chain of Zinc finger protein Aiolos (Homo sapiens) (Q9UKT9 whole entry): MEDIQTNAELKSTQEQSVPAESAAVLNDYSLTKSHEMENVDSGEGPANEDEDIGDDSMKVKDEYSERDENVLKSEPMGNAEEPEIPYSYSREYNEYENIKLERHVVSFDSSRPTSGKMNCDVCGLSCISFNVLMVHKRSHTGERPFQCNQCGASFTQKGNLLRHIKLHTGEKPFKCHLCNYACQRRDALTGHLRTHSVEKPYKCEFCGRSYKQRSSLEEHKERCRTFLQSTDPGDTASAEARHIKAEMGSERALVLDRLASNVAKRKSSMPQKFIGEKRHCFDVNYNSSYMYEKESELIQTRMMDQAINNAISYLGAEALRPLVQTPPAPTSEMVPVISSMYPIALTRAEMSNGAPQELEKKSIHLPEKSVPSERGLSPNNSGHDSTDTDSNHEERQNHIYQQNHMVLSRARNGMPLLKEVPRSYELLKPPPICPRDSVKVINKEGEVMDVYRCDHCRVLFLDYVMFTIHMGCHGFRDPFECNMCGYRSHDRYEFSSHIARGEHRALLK
Chain of Histone deacetylase 1 (Q13547 whole entry): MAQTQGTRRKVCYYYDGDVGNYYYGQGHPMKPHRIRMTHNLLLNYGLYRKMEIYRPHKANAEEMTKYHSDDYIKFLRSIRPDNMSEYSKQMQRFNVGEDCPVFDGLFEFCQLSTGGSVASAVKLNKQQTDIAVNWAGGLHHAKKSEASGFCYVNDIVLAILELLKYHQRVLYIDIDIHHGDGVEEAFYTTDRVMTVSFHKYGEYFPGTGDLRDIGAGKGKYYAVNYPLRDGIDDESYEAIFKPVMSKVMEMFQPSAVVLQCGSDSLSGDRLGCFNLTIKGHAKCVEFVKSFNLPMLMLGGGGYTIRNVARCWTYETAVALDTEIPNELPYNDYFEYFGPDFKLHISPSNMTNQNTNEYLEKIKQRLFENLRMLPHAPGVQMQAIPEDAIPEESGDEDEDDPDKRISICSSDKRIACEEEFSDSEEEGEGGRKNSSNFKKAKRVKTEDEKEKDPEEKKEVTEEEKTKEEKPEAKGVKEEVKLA

## Nc1ccccc1NC(=O)c1ccc(CNc2cccc3c2C(=O)N(C2CCC(=O)NC2=O)C3=O)cc1 (stereo unspecified)
[1]
  Activity: Active
[2]
  Activity: Active
[3]
  Activity: Active
[4]
  Kd: 41.3 µM
[5]
  IC50: 4.89 µM
[6]
  Activity: Dose-Dependent Effect
[7]
  Activity: Active
[8]
  Activity: Dose-Dependent Effect
[9]
  Activity: inactive
[10]
  IC50: > 2 µM
[11]
  Activity: inactive
[12]
  Activity: inactive
[13]
  IC50: 0.379 µM

## Nc1cc(F)ccc1NC(=O)c1ccc(CNc2cccc3c2C(=O)N(C2CCC(=O)NC2=O)C3=O)cc1 (stereo unspecified)
[1]
  Activity: Active
[2]
  Activity: Active
[3]
  Activity: Active
[4]
  Kd: 16.7 µM
[5]
  IC50: 2.94 µM
[6]
  Activity: Dose-Dependent Effect
[7]
  Activity: Active
[8]
  Activity: Dose-Dependent Effect
[9]
  Activity: inactive
[10]
  IC50: > 2 µM
[11]
  Activity: inactive
[12]
  Activity: inactive
[13]
  IC50: 0.434 µM
